Where a name gives a salt, the structure may show the parent alone.

In series [1] the target is T1, cyclooxygenase-1 (COX-1) (Homo sapiens, UniProt P23219).
T1 construct: from tissue; host or cells: heparinized human whole blood
Description: Inhibition of cyclooxygenase-1 (COX-1) activity in human blood (thromboxane B2 levels after ionophore A23187). The format is cell-based. The settings on record: for inhibition at 10 µM: read-out: % inhibition COX-1 (10 μM), 10 μM test compound. On the procedure: (§1) Inhibition of cyclooxgenase-1 (COX-1) and cyclooxygenase-2 (COX-2) Activity in Human Blood
Heparinized human blood from healthy volunteers who had not taken non-steroidal anti-inflammatory drugs (NSAIDs) for a week, and neither alcohol nor xanthines 24 h before blood collection, is used. Blood is divided into two groups; one will be used to determine COX-1 activity and the other one for COX-2. The procedure to follow will be different in each case.
For COX-1, 12-mL tubes are used. 5 μL of the test compound (in DMSO solution; in duplicate) are placed in each tube. Aditionally two tubes for blanks and two tubes for controls containing 5 μL of DMSO are used. Next, 1 mL of blood is added to each tube and they are stirred. The tubes are placed in a thermostatized bath at 37° C. for 5 h. Then, 5 μL of 5 mM ionophore A23187 is added to each tube, except to the blanks, and tubes are incubated for 30 min more at 37° C. After this time, the tubes are placed in ice and 100 μL of a 100 mM EGTA solution is added to stop the reaction. 2.5 mL of methanol is added to each tube to reach a final concentration of 70%. The tubes are stirred and frozen at −70° C. till their use. The COX-1 activity is determined by measuring thromboxane B2 levels in the samples. Blood is defrozen and centrifuged at 2000 g for 10 min at 4° C. 1 mL of supematant is evaporated under nitrogen to dryness. The solid residue thus obtained is resuspended in 1 mL of saline and the thromboxane B2 levels in these samples are determined using a kit (Kit Thromboxane B2, Biotrak EIA system RPN220 Amershan), according to the manufacturer's instructions.

For series [2], the target named is T2, cyclooxygenase-2 (COX-2) (Homo sapiens, UniProt P35354).
T2 construct: 5 μL of LPS is also added (in order to induce COX-2 activy); from tissue; host or cells: heparinized human whole blood, LPS-stimulated, with aspirin added
T2 sequence (P35354 18-604): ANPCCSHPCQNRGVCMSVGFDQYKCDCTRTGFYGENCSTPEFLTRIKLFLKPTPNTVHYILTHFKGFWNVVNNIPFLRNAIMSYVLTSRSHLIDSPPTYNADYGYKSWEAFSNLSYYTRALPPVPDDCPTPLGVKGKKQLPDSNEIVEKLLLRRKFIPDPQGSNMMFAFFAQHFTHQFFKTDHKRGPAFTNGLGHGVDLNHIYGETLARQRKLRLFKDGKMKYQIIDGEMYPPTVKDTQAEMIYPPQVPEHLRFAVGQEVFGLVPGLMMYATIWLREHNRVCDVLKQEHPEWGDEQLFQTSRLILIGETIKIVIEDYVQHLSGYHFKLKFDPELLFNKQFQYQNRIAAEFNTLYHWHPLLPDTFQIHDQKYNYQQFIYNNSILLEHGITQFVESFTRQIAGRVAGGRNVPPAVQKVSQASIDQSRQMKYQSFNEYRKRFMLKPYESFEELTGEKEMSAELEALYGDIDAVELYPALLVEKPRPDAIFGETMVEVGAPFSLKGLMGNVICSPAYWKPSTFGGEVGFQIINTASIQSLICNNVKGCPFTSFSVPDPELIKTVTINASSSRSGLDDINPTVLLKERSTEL
The experiment in a line: Inhibition of cyclooxygenase-2 (COX-2) activity in human blood (prostaglandin E2 levels after LPS, aspirin added). The format is cell-based. Conditions: for inhibition at 1 µM: read-out: % inhibition COX-2 (1 μM), 1 μM test compound; for inhibition at 10 µM: read-out: % inhibition COX-2 (10 μM), 10 μM test compound. On the procedure:
as §1
Blood is divided into two groups; one will be used to determine COX-1 activity and the other one for COX-2. The procedure to follow will be different in each case.
For COX-2, 3-mL tubes are prepared in duplicate containing 5 μL of the test compound (solution in DMSO) and 5 μL of vehicle in the case of blanks and controls. To each tube, 5 μL of a 2 mg/mL solution of aspirin in DMSO is also added (in order to inhibit COX-1 activity), and to all tubes except the blanks 5 μL of LPS is also added (in order to induce COX-2 activy). Finally, 1 mL of heparinized blood is added to each tube, and tubes are then stirred and placed in a thermostatized bath at 37° C. for 24 h. Then, tubes are centrifuged at 2000 g for 10 min at 4° C., the resulting plasma is collected and is frozen at −70° C. until use. COX-2 activity is determined by measuring prostaglandin E2 levels in the samples. The plasma stored at −70° C. is defrozen and prostaglandin E2 levels in these samples are determined using a kit (Kit Prostaglandin E2, Biotrak EIA system RPN222 Amershan), according to the manufacturer's instructions.

T1 sequence (P23219 24-599): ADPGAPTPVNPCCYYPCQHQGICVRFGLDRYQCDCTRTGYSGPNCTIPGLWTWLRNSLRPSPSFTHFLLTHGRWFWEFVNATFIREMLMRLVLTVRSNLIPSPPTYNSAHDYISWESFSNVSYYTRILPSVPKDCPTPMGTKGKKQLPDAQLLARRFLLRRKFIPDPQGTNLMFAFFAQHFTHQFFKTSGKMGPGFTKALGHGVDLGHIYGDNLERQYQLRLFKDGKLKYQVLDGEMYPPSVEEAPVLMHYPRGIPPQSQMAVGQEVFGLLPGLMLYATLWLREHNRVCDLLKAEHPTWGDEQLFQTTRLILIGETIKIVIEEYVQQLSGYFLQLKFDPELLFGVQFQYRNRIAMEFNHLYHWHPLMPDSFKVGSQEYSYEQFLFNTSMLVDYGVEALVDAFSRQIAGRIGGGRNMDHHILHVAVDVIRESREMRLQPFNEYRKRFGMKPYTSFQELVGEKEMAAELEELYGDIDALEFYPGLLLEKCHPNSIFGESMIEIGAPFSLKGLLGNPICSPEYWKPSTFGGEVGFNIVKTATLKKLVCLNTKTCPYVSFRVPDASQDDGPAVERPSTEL

As a reminder, the inhibition is how much of the control response was suppressed. For the molecule `CS(=O)(=O)c1ccc(-c2cnc(Cl)n2-c2ccc(F)cc2)cc1` [Example 7, 2Chloro-1-(4-fluorophenyl)-5-(4-methylsulfonylphenyl)imidazole], the inhibition at 10 µM in series [1] amounted to 60.1%. In addition, in series [2], the inhibition at 1 µM amounted to 85.6% and the inhibition at 10 µM was found to be 100%.
Broadly, the melting point is the temperature, or range, at which the solid turns liquid. With `CS(=O)(=O)c1ccc(-n2cncc2-c2ccc(Cl)cc2)cc1` [Example 1(15), 5-(4-Chlorophenyl)-1-(4-methylsulfonylphenyl)imidazole], the melting point is 192 to 193 °C.
Same read-out and setting: the figure for `Cc1ccc(-c2cncn2-c2ccc(S(C)(=O)=O)cc2)cc1F` [Example 1(8), 5-(3-Fluoro-4-methylphenyl)-1-(4-methylsulfonylphenyl)imidazole] is 147 °C; for `CS(=O)(=O)c1ccc(-n2cnc(Cl)c2-c2ccc(Cl)nc2)cc1` (as salt: HCl) [4(16), 4-Chloro-5-(6-chloro-3-pyridyl)-1-(4-methylsulfonylphenyl)imidazole] it is 223 °C; for `NS(=O)(=O)c1ccc(-n2cncc2-c2ccc(F)cc2)cc1` [Example 14, 4-[5-(4-Fluorophenyl)imidazol-1-yl]benzenesulfonamide] it is 196 to 197 °C.
`Cc1ccc(-c2c(Cl)ncn2-c2ccc(S(C)(=O)=O)cc2)cn1` [4(11), 4-Chloro-5-(6-methyl-3-pyridyl)-1-(4-methylsulfonylphenyl)imidazole]: the inhibition at 10 µM in series [1] was 39.7%. For the same molecule, in series [2], the inhibition at 1 µM came to 58.4% and the inhibition at 10 µM came to 100%.
With `CCCOc1ccc(-c2cncn2-c2ccc(S(C)(=O)=O)cc2)cc1` [Example 1(20), 1-(4-Methylsulfonylphenyl)-5-(4-propoxyphenyl)imidazole], the melting point was 167 to 169 °C.
On the same count and under the same terms, the figure for `COc1cc(-c2cncn2-c2ccc(S(C)(=O)=O)cc2)ccc1C` [Example 1(14), 5-(3-Methoxy-4-methylphenyl)-1(4-methylsulfonylphenyl)imidazole] is 174 to 175 °C.
Turning to `Cc1ccc(-c2c(Cl)ncn2-c2ccc(S(N)(=O)=O)cc2)cc1` [13(3), 4-[4-Chloro-5-(4-methylphonyl)imidazol-1-yl]benzenesulfonamide], the “% inhibition COX-1 (10 μM)” value in series [1] (10 μM test compound) is reported as 71.3%. Also, in series [2] (1 μM test compound), the “% inhibition COX-2 (1 μM)” value was found to be 76.1%. For the same molecule, the “% inhibition COX-2 (10 μM)” value in series [2] (10 μM test compound) is 100%.
With `CS(=O)(=O)c1ccc(-n2cncc2-c2ccccc2F)cc1` [Example 1(9), 5-(2-Fluorophenyl)-1(4-methylsulfonylphenyl)imidazole], the melting point lay within 188 to 189 °C.
The same measure, in the same setting: the figure for `Cc1ccc(-c2cncn2-c2ccc(S(C)(=O)=O)cc2)cc1` [Example 1(1), 5-(4-Methylphenyl)-1-(4-methylsulfonylphenyl)imidazole] is 156 °C.
As to `CCOc1cc(OCC)cc(-c2cncn2-c2ccc(S(C)(=O)=O)cc2)c1` [Example 1(21), 5-(3,5-Diethoxyphenyl)-1-(4-methylsulfonylphenyl)imidazole], the melting point fell in the range of 100 to 101 °C.
`CS(=O)(=O)c1ccc(-n2cnc(Cl)c2-c2ccc(F)cc2)cc1` [Example 4, 4-Chloro-5-(4-fluorophenyl)-1-(4-methylsulfonylphenyl)imidazole]: the inhibition at 10 µM was 37.8% in series [1] and 100% in series [2]. Also, the inhibition at 1 µM in series [2] was determined as 89%.
The molecule `CS(=O)(=O)c1ccc(-n2cnc(Cl)c2-c2cnc(Cl)c(Cl)c2)cc1` [4(19), 4-Chloro-5-(5,6-dichloro-3-pyridyl)-1-(4-methylsulfonylphenyl)imidazole] registered a melting point of 223 to 230 °C.
In turn, `CS(=O)(=O)c1ccc(-n2cncc2-c2cnc(Cl)c(Cl)c2)cc1` [Example 1(19), 5-(5,6-Dichloro-3-pyridyl)-1-(4-methylsulfonylphenyl)imidazole] returned a melting point of 192 to 198 °C.
Molecule `CSc1ccc(-c2cncn2-c2ccc(S(C)(=O)=O)cc2)cc1` [Example 1(24), 5-(4-Methylsulfanylphenyl)-1-(4-methylsulfonylphenyl)imidazole] returned a melting point of 153 to 155 °C.
On the same count and under the same terms, the figure for `CS(=O)(=O)c1ccc(-n2cncc2-c2ccc(OC(F)(F)F)cc2)cc1` [Example 1(10), 1-(4-Methylsulfonylphenyl)-5-(4-trifluoromethoxyphenyl)imidazole] is 141 to 142 °C.
On the same count and under the same terms, under `COc1ccc(-c2cncn2-c2ccc(S(C)(=O)=O)cc2)cc1` [Example 1(5), 5-(4-Methoxyphenyl)-1-(4-methylsulfonylphenyl)imidazole] stands 185 to 187 °C; under `CC(=O)Nc1ccc(-c2[nH]c(-c3ccc(S(C)(=O)=O)cc3)nc2Cl)cc1` [Example 18, 5-(4-Acetylaminophenyl)-4-chloro-(4-methylsulfonylphenyl)imidazole], 238 to 241 °C.
Still for that read-out and setting: the figure for `CS(=O)(=O)c1ccc(-n2cnc(Cl)c2-c2ccc(Cl)c(Cl)c2)cc1` [4(4), 4-Chloro-5-(3,4-dichlorophenyl)-1(4-methylsulfonylphenyl)imidazole] is 156 to 157 °C; for `CS(=O)(=O)c1ccc(-c2cnc(Cl)n2-c2ccccc2)cc1` [Example 11, 2-Chloro-5-(4-methylsulfonylphenyl)-1-phenylimidazole] it is 185 to 193 °C; for `Cc1ccc(-c2c(Cl)ncn2-c2ccc(S(C)(=O)=O)cc2)cc1Cl` (as salt: HCl) [4(13), 4-Chloro-5-(3-chloro-4-methylphenyl)-1-(4-methylsulfonylphenyl)-imidazole] it is 181 to 182 °C.
`NS(=O)(=O)c1ccc(-n2cnc(Cl)c2-c2ccc(Cl)c(Cl)c2)cc1` [13(2), 4-[4-Chloro-5-(3,4-dichlorophenyl)imidazol-1-yl]benzenesulfonamide] came in with a melting point of 251 °C.
The same measure, in the same setting: the figure for `CS(=O)(=O)c1ccc(-n2cncc2-c2ccc(Cl)nc2)cc1` [Example 1(16), 5-(6-Chloro-3-pyridyl)-1-(4-methylsulfonylphenyl)imidazole] is 191 to 192 °C; for `COc1ccc(-c2cncn2-c2ccc(S(C)(=O)=O)cc2)c(Cl)n1` [Example 1(18), 5-(2-Chloro-6-methoxy-3-pyridyl)-1-(4-methylsulfonylphenyl)imidazole] it is 192 to 198 °C.
The same measure, in the same setting: the figure for `COCc1cccc(-c2c(Cl)ncn2-c2ccc(S(C)(=O)=O)cc2)c1` (as salt: HCl) [4(14), 4-Chloro-5-(3-methoxymethylphenyl)-1-(4-methylsulfonylphenyl)-imidazole] is 178 °C.
Same read-out and setting: the figure for `CS(=O)(=O)c1ccc(-n2cncc2-c2ccc(F)cc2F)cc1` [Example 1(2), 5-(2,4-Difluorophenyl)-1-(4-methylsulfonylphenyl)imidazole] is 119 °C.
Molecule `CS(=O)(=O)c1ccc(-n2cncc2-c2ccccc2)cc1` [Example 1(3), 1-(4-Methylsulfonylphenyl)-5-phenylimidazole] came in with a melting point of 164 °C.

For the origin of these results see patent US6838476B1, “Imidazoles with anti-inflammatory activity” (J. Uriach & Cia, SA, priority 1998, dated 2005).
